This note sets out measurements from patent US12497365B2, “4-pyridinyl formamide compound or derivative thereof, preparation method therefor, herbicidal composition and use thereof” (Qingdao Kingagroot Chemical Compound Co., Ltd., priority 2019, dated 2025).

Common to all, as to experiment: Weeding effect in post-emergence stage
Holding throughout (format): in vivo
Common to all, as to conditions: active ingredient 2000 g/ha, 3 weeks after application, fresh weight control rate

One test relates to Descurainia sophia. The procedure, abridged: (§1)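 Greenhouse post-emergence test: 2-3 leaf plants sprayed at 125-2000 g/ha, then fresh weight control rate scored at 3 weeks.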
For the next test, the system named is Chenopodium album. The procedure, abridged: as §1
In the next test the test system is Abutilon theophrasti. The procedure, abridged: as §1
Test [1] relates to Amaranthus retroflexus L. The gist of the method:
as §1

`Cn1nnnc1NC(=O)c1ccnc(-c2ccccc2CBr)c1Cl` [Compound 1-23]: the “Weeding effect, activity level (growth control rate), Descurainia sophia” value (“Weeding effect … Descurainia sophia” for short) in the test on Descurainia sophia was 5 (Level 5: growth control rate is above 85%). In addition, the “Weeding effect, activity level (growth control rate), Chenopodium album” value (from here on “Weeding effect … Chenopodium album”) in the test on Chenopodium album was 5 (Level 5: growth control rate is above 85%). Moreover, the “Weeding effect, activity level (growth control rate), Abutilon theophrasti” value (“Weeding effect … Abutilon theophrasti” for short) in the test on Abutilon theophrasti was 5 (Level 5: growth control rate is above 85%). Moreover, the “Weeding effect, activity level (growth control rate), Amaranthus retroflexus L.” value (“Weeding effect … Amaranthus retroflexus L.” below) in test [1] is 5 (Level 5: growth control rate is above 85%).
In the case of `Cn1nnnc1NC(=O)c1ccnc(-c2cnc(Cl)nc2)c1Cl` [Compound 1-157], the “Weeding effect … Descurainia sophia” value with Descurainia sophia is 5 (Level 5: growth control rate is above 85%). Also, in the test on Chenopodium album, the “Weeding effect … Chenopodium album” value is listed as 5 (Level 5: growth control rate is above 85%). Besides, the “Weeding effect … Abutilon theophrasti” value in the test with Abutilon theophrasti is recorded as 5 (Level 5: growth control rate is above 85%). Further, in test [1], the “Weeding effect … Amaranthus retroflexus L.” value was 5 (Level 5: growth control rate is above 85%).
In the case of `Cn1nnnc1NC(=O)c1ccnc(-c2ccnc(C#N)c2)c1Cl` [Compound 1-148], the “Weeding effect … Descurainia sophia” value in the test with Descurainia sophia was 5 (Level 5: growth control rate is above 85%). The “Weeding effect … Chenopodium album” value with Chenopodium album is 5 (Level 5: growth control rate is above 85%). The “Weeding effect … Abutilon theophrasti” value with Abutilon theophrasti was 5 (Level 5: growth control rate is above 85%). Also, in test [1], the “Weeding effect … Amaranthus retroflexus L.” value is on record as 5 (Level 5: growth control rate is above 85%).
Take `Cn1cncc1-c1nccc(C(=O)Nc2nnnn2C)c1Cl` [Compound 1-234]: in the test with Descurainia sophia, the “Weeding effect … Descurainia sophia” value is reported as 5 (Level 5: growth control rate is above 85%). Also, the “Weeding effect … Chenopodium album” value in the test with Chenopodium album is listed as 5 (Level 5: growth control rate is above 85%). Besides, the “Weeding effect … Abutilon theophrasti” value with Abutilon theophrasti is 5 (Level 5: growth control rate is above 85%). In addition, in test [1], the “Weeding effect … Amaranthus retroflexus L.” value was 5 (Level 5: growth control rate is above 85%).
In the case of `Cc1ccncc1-c1nccc(C(=O)Nc2nnnn2C)c1Cl` [Compound 1-125], the “Weeding effect … Descurainia sophia” value with Descurainia sophia is recorded as 5 (Level 5: growth control rate is above 85%). For the same molecule, the “Weeding effect … Chenopodium album” value in the test on Chenopodium album is listed as 5 (Level 5: growth control rate is above 85%). Moreover, the “Weeding effect … Abutilon theophrasti” value in the test with Abutilon theophrasti is 5 (Level 5: growth control rate is above 85%). Besides, in test [1], the “Weeding effect … Amaranthus retroflexus L.” value is given as 5 (Level 5: growth control rate is above 85%).
Take `CCOc1ccc(-c2nccc(C(=O)Nc3nnnn3C)c2Cl)cn1` [Compound 1-144]: the “Weeding effect … Descurainia sophia” value in the test on Descurainia sophia is listed as 5 (Level 5: growth control rate is above 85%). Moreover, the “Weeding effect … Chenopodium album” value in the test on Chenopodium album is 5 (Level 5: growth control rate is above 85%). Moreover, in the test on Abutilon theophrasti, the “Weeding effect … Abutilon theophrasti” value was 5 (Level 5: growth control rate is above 85%). The “Weeding effect … Amaranthus retroflexus L.” value in test [1] is reported as 5 (Level 5: growth control rate is above 85%).
`Cn1nnnc1NC(=O)c1ccnc(-c2ccoc2)c1Cl` [Compound 1-183]: the “Weeding effect … Descurainia sophia” value in the test on Descurainia sophia is 5 (Level 5: growth control rate is above 85%). The “Weeding effect … Chenopodium album” value with Chenopodium album is 5 (Level 5: growth control rate is above 85%). For the same molecule, in the test with Abutilon theophrasti, the “Weeding effect … Abutilon theophrasti” value is listed as 5 (Level 5: growth control rate is above 85%). The “Weeding effect … Amaranthus retroflexus L.” value in test [1] is 5 (Level 5: growth control rate is above 85%).
Consider `Cn1nnnc1NC(=O)c1ccnc(-c2cncc(F)c2)c1Cl` [Compound 1-128], for which the “Weeding effect … Descurainia sophia” value with Descurainia sophia is on record as 5 (Level 5: growth control rate is above 85%). In addition, in the test on Chenopodium album, the “Weeding effect … Chenopodium album” value was 5 (Level 5: growth control rate is above 85%). In the test with Abutilon theophrasti, the “Weeding effect … Abutilon theophrasti” value is reported as 5 (Level 5: growth control rate is above 85%). Further, in test [1], the “Weeding effect … Amaranthus retroflexus L.” value is on record as 5 (Level 5: growth control rate is above 85%).
Take `Cn1nnnc1NC(=O)c1ccnc(-c2cnn(C(F)F)c2)c1Cl` [Compound 1-174]: in the test on Descurainia sophia, the “Weeding effect … Descurainia sophia” value is 5 (Level 5: growth control rate is above 85%). Moreover, the “Weeding effect … Chenopodium album” value in the test on Chenopodium album is reported as 5 (Level 5: growth control rate is above 85%). For the same molecule, in the test with Abutilon theophrasti, the “Weeding effect … Abutilon theophrasti” value is given as 5 (Level 5: growth control rate is above 85%). For the same molecule, in test [1], the “Weeding effect … Amaranthus retroflexus L.” value is 5 (Level 5: growth control rate is above 85%).
`Cn1nnnc1NC(=O)c1ccnc(Oc2ccccc2)c1Cl` [Compound 1-2063]: in the test on Descurainia sophia, the “Weeding effect … Descurainia sophia” value is reported as 5 (Level 5: growth control rate is above 85%). The “Weeding effect … Chenopodium album” value in the test on Chenopodium album was 5 (Level 5: growth control rate is above 85%). The “Weeding effect … Abutilon theophrasti” value in the test on Abutilon theophrasti is given as 5 (Level 5: growth control rate is above 85%). Also, the “Weeding effect … Amaranthus retroflexus L.” value in test [1] is reported as 5 (Level 5: growth control rate is above 85%).
`Cn1nnnc1NC(=O)c1ccnc(-c2cccc(OCc3ccccc3)c2)c1Cl` [Compound 1-56]: the “Weeding effect … Descurainia sophia” value in the test on Descurainia sophia was 5 (Level 5: growth control rate is above 85%). Moreover, in the test with Chenopodium album, the “Weeding effect … Chenopodium album” value is 5 (Level 5: growth control rate is above 85%). In addition, the “Weeding effect … Abutilon theophrasti” value in the test on Abutilon theophrasti was 5 (Level 5: growth control rate is above 85%). In test [1], the “Weeding effect … Amaranthus retroflexus L.” value is 5 (Level 5: growth control rate is above 85%).
Take `Cn1nnnc1NC(=O)c1ccnc(-c2ccccn2)c1Cl` [Compound 1-119]: the “Weeding effect … Descurainia sophia” value in the test on Descurainia sophia is 5 (Level 5: growth control rate is above 85%). In addition, the “Weeding effect … Chenopodium album” value in the test on Chenopodium album is reported as 5 (Level 5: growth control rate is above 85%). Also, the “Weeding effect … Abutilon theophrasti” value in the test on Abutilon theophrasti is on record as 5 (Level 5: growth control rate is above 85%). The “Weeding effect … Amaranthus retroflexus L.” value in test [1] is 5 (Level 5: growth control rate is above 85%).
`Cn1nccc1-c1nccc(C(=O)Nc2nnnn2C)c1Cl` [Compound 1-178]: in the test with Descurainia sophia, the “Weeding effect … Descurainia sophia” value is 5 (Level 5: growth control rate is above 85%). In addition, the “Weeding effect … Chenopodium album” value in the test on Chenopodium album is 5 (Level 5: growth control rate is above 85%). Further, in the test with Abutilon theophrasti, the “Weeding effect … Abutilon theophrasti” value was 5 (Level 5: growth control rate is above 85%). Also, the “Weeding effect … Amaranthus retroflexus L.” value in test [1] is on record as 5 (Level 5: growth control rate is above 85%).
Turning to `Cn1nnnc1NC(=O)c1ccnc(-c2ccc(F)cc2)c1[S+](C)[O-]` (stereo not shown) [Compound 1-205], in the test on Descurainia sophia, the “Weeding effect … Descurainia sophia” value was 5 (Level 5: growth control rate is above 85%). The “Weeding effect … Chenopodium album” value in the test with Chenopodium album is reported as 5 (Level 5: growth control rate is above 85%). Moreover, in the test with Abutilon theophrasti, the “Weeding effect … Abutilon theophrasti” value is 5 (Level 5: growth control rate is above 85%). In test [1], the “Weeding effect … Amaranthus retroflexus L.” value is recorded as 5 (Level 5: growth control rate is above 85%).
For `COc1ncc(-c2nccc(C(=O)Nc3nnnn3C)c2Cl)c(OC)n1` [Compound 1-162], the “Weeding effect … Descurainia sophia” value in the test with Descurainia sophia is reported as 5 (Level 5: growth control rate is above 85%). Further, in the test with Chenopodium album, the “Weeding effect … Chenopodium album” value was 5 (Level 5: growth control rate is above 85%). The “Weeding effect … Abutilon theophrasti” value in the test on Abutilon theophrasti is 5 (Level 5: growth control rate is above 85%). Besides, in test [1], the “Weeding effect … Amaranthus retroflexus L.” value is 5 (Level 5: growth control rate is above 85%).
In the case of `Cn1nnnc1NC(=O)c1ccnc(-c2ccc[nH]2)c1Cl` [Compound 1-2006], in the test with Descurainia sophia, the “Weeding effect … Descurainia sophia” value is reported as 5 (Level 5: growth control rate is above 85%). The “Weeding effect … Chenopodium album” value in the test with Chenopodium album is recorded as 5 (Level 5: growth control rate is above 85%). Besides, the “Weeding effect … Abutilon theophrasti” value in the test on Abutilon theophrasti was 5 (Level 5: growth control rate is above 85%). Further, in test [1], the “Weeding effect … Amaranthus retroflexus L.” value is reported as 5 (Level 5: growth control rate is above 85%).
For `Cn1nnnc1NC(=O)c1ccnc(-c2cccc(CO)c2)c1Cl` [Compound 1-36], the “Weeding effect … Descurainia sophia” value with Descurainia sophia is listed as 5 (Level 5: growth control rate is above 85%). For the same molecule, in the test with Chenopodium album, the “Weeding effect … Chenopodium album” value is 5 (Level 5: growth control rate is above 85%). Besides, the “Weeding effect … Abutilon theophrasti” value in the test with Abutilon theophrasti is 5 (Level 5: growth control rate is above 85%). The “Weeding effect … Amaranthus retroflexus L.” value in test [1] is reported as 5 (Level 5: growth control rate is above 85%).
With `Cn1nnnc1NC(=O)c1ccnc(-c2ccc(C#N)s2)c1Cl` [Compound 1-192], in the test on Descurainia sophia, the “Weeding effect … Descurainia sophia” value is reported as 5 (Level 5: growth control rate is above 85%). Besides, in the test with Chenopodium album, the “Weeding effect … Chenopodium album” value is reported as 5 (Level 5: growth control rate is above 85%). The “Weeding effect … Abutilon theophrasti” value with Abutilon theophrasti is 5 (Level 5: growth control rate is above 85%). Further, in test [1], the “Weeding effect … Amaranthus retroflexus L.” value is given as 5 (Level 5: growth control rate is above 85%).
`Cc1nn(C)cc1-c1nccc(C(=O)Nc2nnnn2C)c1Cl` [Compound 1-169]: in the test on Descurainia sophia, the “Weeding effect … Descurainia sophia” value is listed as 5 (Level 5: growth control rate is above 85%). The “Weeding effect … Chenopodium album” value in the test with Chenopodium album is 5 (Level 5: growth control rate is above 85%). For the same molecule, in the test on Abutilon theophrasti, the “Weeding effect … Abutilon theophrasti” value is reported as 5 (Level 5: growth control rate is above 85%). The “Weeding effect … Amaranthus retroflexus L.” value in test [1] is given as 5 (Level 5: growth control rate is above 85%).
